The text below walks through data of US20240391903A1, “AUTOTAXIN-INHIBITORS” (UNIVERSITAET MUENSTER, priority 2021, published 2024).

Data set [1] can be described thus: Pharmacokinetic evaluation in mouse plasma after oral gavage. To be noted: 30 mg/kg oral, based on mean concentrations. It is filed as in vivo. The method, then:
MJK2134025 and GLPG 1690 were each administered as wet milled aqueous micro-suspensions at a concentration of 3 mg/g in 1% carboxymethyl cellulose and 0.5% Tween 80. Dosing of the formulations was performed at 10.0 g/kg body weight, corresponding to 30 mg/kg body weight. The food intake was measured (FIG. 19).
Prior blood collection, minicollect K3 EDTA vials were opened at room temperature to dry the EDTA in order to avoid blood dilution by the fluid content. Following oral gavage of the test formulations tail vein blood samples were taken at 15 min, 30 min, 1 h, 2 h, 4 h and 8 h. Samples were collected in dried minicollect K3 EDTA plasma vials. The blood samples (20-25 μl) were mixed and immediately cooled to 4° C. Subsequently, the samples were centrifuged at 3000 g for 5-10 min. Supernatants were collected in Eppendorf tubes and frozen and stored at −80° C. until further processing.
MJK2134025 and GLPG1690 were quantified in mouse plasma samples by LC-MS. Frozen mouse plasma samples were thawed on ice. Samples were then precipitated at a ratio of 1:10 (v:v) with 5 ng mL^−1 17:0 LPA in methanol (as an internal standard) in a 1.5 mL Eppendorf tube with microinsert (clear glass, flat bottom, 0.2 mL, 31×6 mm, LABSOLUTE, Germany). The Eppendorf tubes were mixed for 2 minutes at 4° C. and 1600 rpm in a Thermomixer C (Eppendorf, Germany). The Eppendorf tubes were centrifuged at 4° C. and 16.1 rcf for 2 minutes. The supernatant was transferred to HPLC vials for UHPLC-HRMS measurements as described in the following section. Calibration standards of MJK2134025 and GLPG1690 were prepared by adding the reference substances of MJK2134025 and GLPG1690 to blank samples (mouse plasma without substance). The calibration curve was generated at 7 concentrations and with a weighting of 1/×. The following concentrations were used for the stock solutions: 0.1, 0.5, 1, 2.5, 10, 50 and 200 μg·mL^−1 in methanol. To prepare the 200 μg·mL^−1 stock solution, 0.04 mL of 1 mg·mL^−1 MJK2134025 and 0.04 mL of 1 mg·mL^−1 GLPG1690 were mixed with 0.12 mL methanol. These stock solutions (5 μL each) were added to the blank plasma (45 μL). The sample was then mixed for 2 minutes at 4° C. and 1600 rpm in Thermomixer C (Eppendorf, Germany). Subsequent sample processing was the same as for the samples quantified. All quantifications should be considered as preliminary estimates as stable isotope-labeled reference substances were not available and individual matrix effects cannot be excluded.
All processed plasma samples were analyzed with a Vanquish Horizon UHPLC system (Thermo Fisher Scientific, Bremen, Germany) coupled to a Thermo Scientific QExactive HF-X Orbitrap mass spectrometer (Thermo Fisher Scientific, Bremen, Germany) using a UHPLC column (Luna R Omega 1.6 μm C18 100 Å, 100*2.1 mm). A solution of 5 mM ammonium formate in water containing 0.1% formic acid (eluent A) and a 5 mM solution of ammonium formate in acetonitrile: H2O (95:5, % v:v) containing 0.1% formic acid (eluent B) were used as the mobile phase. A flow rate of 0.3 mL/min was used under the following gradient conditions: 30% eluent B for 1 minute, then linear increase to 98% in 14 minutes, holding 98% of eluent B for 5 minutes, and then decreasing to 30% in 0.5 minutes, followed by isocratic holding for 3.5 minutes. The column temperature was maintained at 25° C. Samples were kept at 4° C., and 8 μL was injected into the UHPLC-MS. The QExactive HF-X Orbitrap was acquired at a resolution of 60000 at full half-width and in both positive and negative modes. The following HESI source parameters were used: capillary voltage of 3.8 kV (negative mode) and 3.5 kV (positive mode), capillary temperature of 320° C., funnel RF level 40, sheath gas pressure 49 (N2>95%), auxiliary gas 10 (N2>95%), auxiliary gas heater temperature 300° C. The automatic gain control (AGC) was set to 10E+6. A scan range of m/z 400 to 600 was selected, and the injection time was set to 200 ms. […]

Data set [2] can be described thus: Cytotoxicity testing in HeLa cells (methylene blue). It counts as cell-based. To be noted: human, HeLa cells (DSM ACC 57), 72 hours incubation. The method, then:
Hela cells (DSM ACC 57) were grown in RPMI 1640 medium supplemented with 10 mL·L^−1 ultraglutamine 1 (CAMBREX 17-605E/U1), 550 μL·L^−1 gentamicin sulfate (50 mg·mL^−1, CAMBREX 17-518Z) and 10% heat inactivated fetal bovine serum (GIBCO Life Technologies 10270-106) at 37° C. in a 5% CO2 atmosphere in high density polyethylene flasks (NUNC 156340). Cells were pre-incubated for 48 hours in the absence of test substances. Subsequently, Hela cells were incubated with serial dilutions of the test substances in 96 well microplates for 72 hours at 37° C. in a humidified atmosphere and 5% CO2. After incubation, the cytolytic effect of compounds was analyzed relative to the negative control (DMSO) using a colorimetric assay (methylene blue). The adherent Hela cells were fixed by glutaraldehyde (MERCK 1.04239.0250) and stained with a 0.05% solution of methylene blue (SERVA 29198) for 15 min. After gentle rinsing, the stain was eluted through addition of 0.2 mL hydrochloric acid (0.33 M) to each well. The absorptions were measured at 660 nm in a SUNRISE microplate reader (TECAN). Four replicates were assayed for each substance. […] All calculations of CC50 values were performed with the software Magellan (TECAN).

Data set [3] can be described thus: Microsomal stability assay. It is filed as in vitro ADME. To be noted: human liver microsomes. The method, then:
A microsomal stability assay was performed according to an internal standard procedure. Positive control compound diclofenac and three test items were freshly prepared as sub-dilutions in phosphate buffer (100 mM, pH 7.4) at concentrations of 200 μM and 20 μM, respectively. All incubations were conducted in triplicate in glass screw neck vials (1.5 mL, flat bottom, Macherey-Nagel, Düren, Germany) on a Thermomixer C (Eppendorf, Germany) at 37° C. and 1500 rpm. The incubation mixtures contained 270 μL human liver microsomes (HLM, 1.1 mg·mL^−1, UltraPool HLM 150, Corning B.V. Life Science, Amsterdam, the Netherlands), 270 μL NADP regeneration mix (1 mM NADP, 5 mM glucose-6-phosphate, 5 units·mL^−1 glucose-6-phosphate dehydrogenase and 5 mM MgCl2) and 30 μL phosphate buffer to reach a total volume of 570 μL. Negative controls were performed with heat inactivated (80° C., 30 min) HLM solution. Reactions were initiated by addition of diclofenac or the test item solution (30 μL). Aliquots of 100 μL were taken at 1, 15, 30, 60, and 90 minutes and immediately processed with 100 μL acetonitrile at 4° C. to terminate the reactions, and shaken for 2 minutes at 4° C. with 1600 rpm. The mixed samples were further transferred to 15 mm glass inserts (0.2 mL/6×31 mm, Macherey-Nagel, Düren, Germany) fitted in glass screw neck vials, and centrifuged for 15 min at 4° C. with 4000 rpm. The supernatants were withdrawn and subjected to high resolution mass spectrometry analysis without further treatment.
Samples were analyzed using a Vanquish Horizon UHPLC system (Thermo Fisher Scientific, Bremen, Germany) coupled to a Thermo Scientific QExactive HF-X Orbitrap mass spectrometer (Thermo Fisher Scientific, Bremen, Germany) using a UPLC column (ACQUITY HSS T3, Waters, 1.8 μm particle size, 2.1×50 mm dimensions). The column temperature was maintained at 25° C., and the samples were kept at 4° C. […]
Microsomal stability was determined in analogy to the method as described above, but as single determinations (FIG. 18).

The target of another data set is T1, ATX (Homo sapiens, UniProt Q13822).
T1 construct: purchased
Put plainly: ATX activity assay (Autotaxin inhibitor test kit, fluorescent ATX substrate). It is filed as biochemical. To be noted: for IC50: read-out: IC50 (nM) ATX inhibition. The method, then: (§1) A solution of 10 mM of the inhibitor to test in DMSO was received. Adding 40.5 μL of this solution to 959.5 μL DMSO gave a concentration of 405 μM. […] For a threefold dilution series 800 μL of 18% DMSO in water were dispensed in twelve 1.5 mL test tubes. 400 μL of the 75.9 μM inhibitor solution were added to the first vial and the solution was vortexed. For every dilution step 400 μL of the corresponding previous dilution step were transferred and mixed by vortexing. The obtained concentrations were 7594 nM, 2531 nM, 844 nM, 281 nM, 94 nM, 31 nM, 10 nM, 3.47 nM, 1.16 nM, 0.39 nM, 0.13 nM, 0.043 nM, 0.014 nM. The eight concentration steps from 31 nM to 0.014 nM were used in the assay.
The assay was performed according to the attached manual of the assay kit. In brief 80 μL reaction buffer containing ATX, 10 μL of the dilution series from the inhibitor and 10 μL fluorescent ATX substrate solution were mixed in a well of a 96 well plate. Cleavage of the substrate by ATX causes increase in fluorescence (excitation 485 nm, emission 528 nm), which is measured by a plate reader in 1 min intervals. The increase of fluorescence between 5 min and 15 min was used to calculate the reaction rate.
The autotaxin reaction was performed in four parallel replicates for the target inhibitor and two replicates for the positive control BrP-LPA. The slope of the increase in fluorescence was calculated by Excel using the “slope” function. The IC50 was calculated by GraphPad Prism using the nolinear regression (curve fit): “log (inhibitor) vs. response with variable slope (four parameters)”.
The autotaxin reaction was performed in three parallel replicates for the target inhibitors MJK2234001 and MJK2234002 and two replicates for MJK2134025 and two replicates for the positive control BrP-LPA. All ATX-tests were performed using the protocol as described above with minor modifications. Those modifications refer to the dilution principle:
as §1, with “The obtained concentrations were 7594 nM, 2531 nM, 844 nM, 281 nM, 94 nM, 31 nM, 10 nM, 3.47 nM, 1.16 nM, 0.39 nM, 0.13 nM, 0.043 nM, 0.014 nM.” left out, “300” for “31”, “0.14” for “0.014”, “assay. During the assay, the final concentration of the inhibitor during the reaction was 1/10th of the added inhibitor solution.” for “assay.”

For data set [4] the following is noted: mouse model of stroke; cited from earlier work.

In the case of `CCc1nc2c(C)cc(N3CCN(CC(=O)N4CC(O)C4)CC3)cn2c1N(C)c1nc(-c2ccc(F)cc2)c(C#N)s1` [GLPG1690, reference compound], in data set [1], the area under the curve (AUC) turned out to be 119 µg·h/mL, the highest concentration (Cmax) was found to be 35200 ng/mL and the Tmax was determined as 1 h.

Consider `O=C(CSc1ccc2nn[nH]c2c1)N1CCN(C(=O)OCc2cc(C(F)(F)F)cc(C(F)(F)F)c2)CC1` [MJK2234001, 3,5-bis(trifluoromethyl)benzyl 4-(2-((1H-benzo[d][1,2,3]triazol-6-yl)thio)acetyl)piperazine-1-carboxylate], for which the midpoint of cytotoxicity in data set [2], the CC50 at 72 h, lay at 6200 nM. Besides, the “microsomal stability / metabolism (in words)” value in data set [3] was “metabolized at a comparable speed as the experimental drug GLPG 1690”. For the same compound, the IC50 on ATX is 4 nM.

As to `O=C(CS(=O)(=O)c1ccc2nn[nH]c2c1)N1CCN(C(=O)OCc2cc(C(F)(F)F)cc(C(F)(F)F)c2)CC1` [MJK2234002, 3,5-bis(trifluoromethyl)benzyl 4-(2-((1H-benzo[d][1,2,3]triazol-6-yl)sulfonyl)acetyl)piperazine-1-carboxylate], the CC50 at 72 h in data set [2] was found to be 67800 nM. In addition, the “microsomal stability / metabolism (in words)” value in data set [3] is “almost equally metabolically stable and superior to all other compounds tested”. For the same compound, at ATX, the “ATX-inhibitory activity (comparison in words)” value is “almost equal ATX-inhibitory activity” and the IC50 was 2 nM.

Take `O=C(CCN1CCN(C(=O)OCc2cc(Cl)cc(Cl)c2)CC1)c1ccc2[nH]c(=O)oc2c1` [PF-8380]: the “infarct size and stroke-related motor deficits” value in data set [4] is “significantly reduced”.
